Legend:
Format in all cases: cell-based, human
[1] = system: HMEC-1; assay: MTT cell viability assay, model of normal cells; conditions: difference of IC50 values
Method: The cytotoxic activity of the 3-benzylideneflavanones, 3-benzylidenechromanones derivatives (compounds 1, 2, 3, 4, 5) and 5′-(3-methoxyphenyl)-2-phenyl-4′,5′-dihydro-4H-spiro[chromano-3,3′-pirazol]-4-one (compound 3a) was evaluated using the MTT assay (4,5-dimethylthiazol-2-yl)-2,5-diphenyltetrazoliumbromide), a colorimetric method that quantifies cell viability.
Cell viability was determined using the metabolic microplate spectrophotometric assay with Methylthiazolyl diphenyltetrazolium bromide (MTT) (Sigma-Aldrich; St. Louis, MO, USA). The MTT method belongs to metabolic tests for determining cell viability and consists of measuring the absorbance of a violet solution of formazan, a product of the reduction of a water-soluble yellow MTT by oxidoreductive enzymes (mainly mitochondrial succinate dehydrogenase) of living cells. […]
The appropriate number of cells for a given cell line (6–8 × 10^3 cells/mL) were seeded onto colorless, sterile 96-well microplates (Nunc, Roskilde, Denmark) in the number appropriate for a given cell line. […] The absorbance of the formazan solution, after gentle mixing, was read at a wavelength of λ = 580 nm and a reference wavelength of λ = 720 nm (Biotek Power Wave HT, Biotek Instruments, Winooski, VT, USA). […] The absorbance of the control was taken as 100%.

[2] = system: Caco-2; assay: Intracellular GSH level, monochlorobimane (MCB) probe; conditions: compound at IC50, 24 h, vs control
Method: The spectrofluorimetric method with monochlorobimane (MCB; Sigma-Aldrich; St. Louis, MO, USA) was used to determine GSH. Monochlorobimane reacts with glutathione in a reaction catalyzed by cellular glutathione S-transferase. The reaction produces a fluorescent bimane-glutathione conjugate (GSH-MCB). A major advantage of MCB is its ability to penetrate the cell membrane, which is why it is used as a probe to determine the amount of GSH in living cells.
Cells were seeded in black 96-well fluorometric microplates at a density of 10 × 10^3 cells/mL. […] Following compound incubation, the medium was removed, and the cell monolayers were washed twice with HBSS (140 mM NaCl, 5 mM KCl, 0.8 mM MgCl2, 1.8 mM CaCl2, 1 mM Na2HPO4, 10 mM HEPES, and 1% glucose). A solution of MCB at a final concentration of 40 μM was added to each well and incubated in a CO2 cell culture incubator at 37 °C for 20 min. A 40 mM MCB stock solution was prepared by dissolving 9 mg of the reagent in 1 mL of absolute ethanol. Fluorescence was measured using a Perkin-Elmer LS-5B spectrofluorometer (Waltham, MA, USA) at the following excitation and fluorescence emission wavelengths: λex = 380 nm/λem = 470 nm. After incubation with MCB, the cells were lysed with 50 μL of lysis buffer (10 mM TRIS-HCl; pH 8 containing 0.1% Triton X-100). In order to normalize the number of cells in individual samples, the amount of DNA was determined by adding 50 μL of ethidium bromide (EB, final concentration 0.2 mM) to each well after measuring the MCB fluorescence and measuring the EB fluorescence at an excitation wavelength of λex = 530 nm and an emission wavelength of λem = 590 nm. The results obtained using the standard curve were converted to nM of GSH.

[3] = system: Caco-2; assay: Cell cycle analysis via flow cytometry (propidium iodide); conditions: compound at IC50, 24 h, vs control
Method: The most commonly used fluorescent dyes for cell cycle analysis are fluorochromes that penetrate the cell membrane into the interior of permeabilized cells and bind stoichiometrically to DNA via intercalation, e.g., DAPI, propidium iodide (PI). The analysis is performed on cells fixed in ethanol. In this work, the cell cycle analysis was performed using the method described by Darzynkiewicz and Juan.
Cells (10 × 10^3) were seeded in 35 mm dishes and cultured in the medium for 24 h to attain the logarithmic growth phase. […] Subsequently, cells were trypsinized and centrifuged for 10 min at 400× g at 4 °C. The cell suspension in 100 μL of PBS was fixed in 1 mL of 70% ethanol (−20 °C) and stored at this temperature until analysis. Immediately before analysis, the ethanol-fixed cell suspension was centrifuged at 10,000 rpm for 10 min at 4 °C. The pellet was washed with cold (4 °C) PBS to remove residual ethanol, and the cell suspension was centrifuged again under the same conditions. A volume of 300 μL of PBS containing 4 mg/mL propidium iodide (final concentration 75 μM) and 1 mg/mL RNAse A (final concentration 20 μg/mL) was added to the cell pellet and incubated for at least 30 min at 37 °C in the dark. Stained cells were analyzed using a flow cytometer (Becton Dickinson, Franklin Lakes, NJ, USA), counting 10,000 cells in each sample. Data were analyzed using FlowJo 10.10 software (FlowJo, Williamson Way Ashland, OR, USA).

For O=C1/C(=C/c2ccccc2)COc2ccccc21 [Compound 1], the “IC50 against HMEC-1 higher than for the majority of tested cancer cell lines (selectivity)” value [1] was “approximately 10 µM”, the “Decrease in GSH levels” value [2] was 25–30% and the “Increase in the G2/M phase cell percentage” value [3] was 30%.
